Experimental data from ChEMBL document CHEMBL1201862, “PubChem BioAssay data set” (2004).
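In this assay, cells in 96-well plates receive the compound at five concentrations for 48 hours. Endpoints are linearly interpolated between the surrounding concentrations. Here, GI50 denotes the concentration required for 50% inhibition of growth.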 Active and inactive are the calls of the source. Cut-off read from the data, not from the text of the source: active = GI50 up to about 1.1 µM and inactive = higher.

Assays:
Assay in all cases: NCI tumour cell line growth inhibition, 48 h
A498 = test system: A498
HCC 2998 = test system: HCC 2998
HCT-116 = test system: HCT-116
A549 = test system: A549
NCI-H226 = test system: NCI-H226
HOP-62 = test system: HOP-62
OVCAR-5 = test system: OVCAR-5
LOX IMVI = test system: LOX IMVI
COLO 205 = test system: COLO 205
OVCAR-8 = test system: OVCAR-8
DU-145 = test system: DU-145
EKVX = test system: EKVX
NCI-H460 = test system: NCI-H460
HT-29 = test system: HT-29
SF-295 = test system: SF-295
PC-3 = test system: PC-3
K562 = test system: K562
ACHN = test system: ACHN
SNB-19 = test system: SNB-19
SN12C = test system: SN12C
UO-31 = test system: UO-31
SF-539 = test system: SF-539
SK-OV-3 = test system: SK-OV-3
UACC-257 = test system: UACC-257
CCRF-CEM = test system: CCRF-CEM
M14 = test system: M14
U-251 = test system: U-251
NCI/ADR-RES = test system: NCI/ADR-RES
KM12 = test system: KM12
SF-268 = test system: SF-268
NCI-H23 = test system: NCI-H23
SR = test system: SR
Malme-3M = test system: Malme-3M
OVCAR-3 = test system: OVCAR-3
BT-549 = test system: BT-549
786-0 = test system: 786-0
SNB-75 = test system: SNB-75
MCF7 = test system: MCF7
UACC-62 = test system: UACC-62
MOLT-4 = test system: MOLT-4
MDA-N = test system: MDA-N
SW-620 = test system: SW-620
SK-MEL-28 = test system: SK-MEL-28
NCI-H522 = test system: NCI-H522
RPMI-8226 = test system: RPMI-8226
SK-MEL-5 = test system: SK-MEL-5
MDA-MB-231 = test system: MDA-MB-231
HOP-92 = test system: HOP-92
T47D = test system: T47D
IGROV-1 = test system: IGROV-1
MDA-MB-435 = test system: MDA-MB-435
HL-60 = test system: HL-60
OVCAR-4 = test system: OVCAR-4
HCT-15 = test system: HCT-15
Hs-578T = test system: Hs-578T
TK-10 = test system: TK-10
SK-MEL-2 = test system: SK-MEL-2
CAKI-1 = test system: CAKI-1
RXF 393 = test system: RXF 393

## C[C@H](c1ccccc1)n1c(N)c(-c2nc3ccccc3s2)c2ccc([N+](=O)[O-])cc2c1=O
A498
  GI50: 11 µM (inactive)
HCC 2998
  GI50: 4.4 µM (inactive)
HCT-116
  GI50: 1.91 µM (inactive)
A549
  GI50: 9.98 µM (inactive)
NCI-H226
  GI50: 4.65 µM (inactive)
HOP-62
  GI50: 11.6 µM (inactive)
OVCAR-5
  GI50: 11.5 µM (inactive)
LOX IMVI
  GI50: 4.46 µM (inactive)
COLO 205
  GI50: 5.43 µM (inactive)
OVCAR-8
  GI50: 3.83 µM (inactive)
DU-145
  GI50: 2.31 µM (inactive)
EKVX
  GI50: 25.1 µM (inactive)
NCI-H460
  GI50: 4.09 µM (inactive)
HT-29
  GI50: 5.37 µM (inactive)
SF-295
  GI50: 4.7 µM (inactive)
PC-3
  GI50: 3.09 µM (inactive)
K562
  GI50: 1.23 µM (inactive)
ACHN
  GI50: 10.1 µM (inactive)
SNB-19
  GI50: 3.49 µM (inactive)
SN12C
  GI50: 8.32 µM (inactive)
UO-31
  GI50: 3.83 µM (inactive)
SF-539
  GI50: 16.9 µM (inactive)
SK-OV-3
  GI50: 8.99 µM (inactive)
UACC-257
  GI50: 11.8 µM (inactive)
CCRF-CEM
  GI50: 0.773 µM (active)
M14
  GI50: 14.8 µM (inactive)
U-251
  GI50: 3.66 µM (inactive)
NCI/ADR-RES
  GI50: 2.84 µM (inactive)
KM12
  GI50: 4.45 µM (inactive)
SF-268
  GI50: 6.27 µM (inactive)
NCI-H23
  GI50: 1.87 µM (inactive)
SR
  GI50: 1.44 µM (inactive)
Malme-3M
  GI50: 12.9 µM (inactive)
OVCAR-3
  GI50: 4.57 µM (inactive)
BT-549
  GI50: 11.5 µM (inactive)
786-0
  GI50: 9.29 µM (inactive)
SNB-75
  GI50: 4.58 µM (inactive)
MCF7
  GI50: 9.27 µM (inactive)
UACC-62
  GI50: 4.33 µM (inactive)
MOLT-4
  GI50: 2.32 µM (inactive)
MDA-N
  GI50: 13.6 µM (inactive)
SW-620
  GI50: 4.14 µM (inactive)
SK-MEL-28
  GI50: 3 µM (inactive)
NCI-H522
  GI50: 1.32 µM (inactive)
RPMI-8226
  GI50: 0.324 µM (active)
SK-MEL-5
  GI50: 4.8 µM (inactive)
MDA-MB-231
  GI50: 3.89 µM (inactive)
HOP-92
  GI50: 1.59 µM (inactive)
T47D
  GI50: 1.58 µM (inactive)
IGROV-1
  GI50: 8.13 µM (inactive)
MDA-MB-435
  GI50: 9.66 µM (inactive)
HL-60
  GI50: 0.327 µM (active)
OVCAR-4
  GI50: 4.34 µM (inactive)
HCT-15
  GI50: 4.76 µM
Hs-578T
  GI50: 2.58 µM (inactive)
TK-10
  GI50: 10.2 µM (inactive)
SK-MEL-2
  GI50: 2.94 µM (inactive)
CAKI-1
  GI50: 15.4 µM (inactive)

## COC(=O)NNC(c1ccc(Cl)cc1)c1ccc(Cl)cc1
A498
  GI50: 18.6 µM (inactive)
HCC 2998
  GI50: 13.5 µM (inactive)
HCT-116
  GI50: 15.7 µM (inactive)
A549
  GI50: 15.3 µM (inactive)
NCI-H226
  GI50: 17.3 µM (inactive)
OVCAR-5
  GI50: 15.7 µM (inactive)
LOX IMVI
  GI50: 16.4 µM (inactive)
COLO 205
  GI50: 18.1 µM (inactive)
OVCAR-8
  GI50: 19.1 µM (inactive)
DU-145
  GI50: 31 µM (inactive)
EKVX
  GI50: 18.8 µM (inactive)
NCI-H460
  GI50: 16.5 µM (inactive)
HT-29
  GI50: 16.5 µM (inactive)
PC-3
  GI50: 12.2 µM (inactive)
K562
  GI50: 22.2 µM (inactive)
SNB-19
  GI50: 17.3 µM (inactive)
SN12C
  GI50: 19.5 µM (inactive)
UO-31
  GI50: 12.5 µM (inactive)
SF-539
  GI50: 20.7 µM (inactive)
SK-OV-3
  GI50: 23.7 µM (inactive)
UACC-257
  GI50: 18.2 µM (inactive)
CCRF-CEM
  GI50: 17.1 µM (inactive)
M14
  GI50: 15.7 µM (inactive)
U-251
  GI50: 19.5 µM (inactive)
NCI/ADR-RES
  GI50: 18.2 µM (inactive)
KM12
  GI50: 17 µM (inactive)
SF-268
  GI50: 21.8 µM (inactive)
NCI-H23
  GI50: 16.3 µM (inactive)
SR
  GI50: 20.2 µM (inactive)
Malme-3M
  GI50: 20.6 µM (inactive)
OVCAR-3
  GI50: 15.2 µM (inactive)
BT-549
  GI50: 16.1 µM (inactive)
RXF 393
  GI50: 10.5 µM (inactive)
786-0
  GI50: 17.1 µM (inactive)
SNB-75
  GI50: 26.2 µM (inactive)
MCF7
  GI50: 23.7 µM (inactive)
UACC-62
  GI50: 16 µM (inactive)
MOLT-4
  GI50: 16.5 µM (inactive)
MDA-N
  GI50: 22.3 µM (inactive)
SW-620
  GI50: 25.1 µM (inactive)
SK-MEL-28
  GI50: 18.7 µM (inactive)
NCI-H522
  GI50: 19.6 µM (inactive)
RPMI-8226
  GI50: 20.9 µM (inactive)
SK-MEL-5
  GI50: 16.5 µM (inactive)
MDA-MB-231
  GI50: 12.2 µM (inactive)
T47D
  GI50: 19.9 µM (inactive)
IGROV-1
  GI50: 16.4 µM (inactive)
MDA-MB-435
  GI50: 31.8 µM (inactive)
HL-60
  GI50: 21 µM (inactive)
OVCAR-4
  GI50: 20.8 µM (inactive)
HCT-15
  GI50: 15.2 µM
Hs-578T
  GI50: 20.4 µM (inactive)
TK-10
  GI50: 17.6 µM (inactive)
SK-MEL-2
  GI50: 12.4 µM (inactive)
CAKI-1
  GI50: 16.1 µM (inactive)
